Tests used:
[1] = test system: Streptococcus pneumoniae ATCC 49619; assay: disk diffusion assay; type: cell-based; settings: 10 micrograms per disk; ciprofloxacin 5, vancomycin 30 micrograms per disk; MHA with 5% dsb. and 5% CO2
[2] = test system: Escherichia coli ATCC 25922; assay: disk diffusion assay; type: cell-based; settings: 10 micrograms per disk; penicillin G 10 units per disk; 35° C. Note: key: R = resistant.
[3] = test system: S. maltophilia ATCC 13637; assay: disk diffusion assay; type: cell-based, Stenotrophomas maltophilia; settings: 10 micrograms per disk; 35° C.
[4] = test system: Candida albicans ATCC 24433; assay: disk diffusion assay; type: cell-based; settings: 10 micrograms per disk; 35° C. Note: key: R = resistant.
[5] = test system: Candida albicans ATCC 90028; assay: disk diffusion assay; type: cell-based; settings: 10 micrograms per disk; 35° C. Note: key: R = resistant.
Candida krusei ATCC 6258 = assay: disk diffusion assay; type: cell-based; settings: 10 micrograms per disk; 35° C.
[6] = test system: Candida parasdosis ATCC 90018; assay: disk diffusion assay; type: cell-based, Candida parapsilosis; settings: 10 micrograms per disk; 35° C. Note: key: R = resistant.
[7] = test system: Cryptococcus neoformans ATCC 32045; assay: disk diffusion assay; type: cell-based; settings: 10 micrograms per disk; 35° C.
[8] = test system: Saccharomyces cerevisiae ATCC 9763; assay: disk diffusion assay; type: cell-based; settings: 10 micrograms per disk; 35° C. Note: key: R = resistant.
Geotrichum candidum = assay: microbroth dilution MIC, plant associated microorganisms; type: cell-based; settings: PD broth, 48 hours at 23° C.
Method: (§1) Incubation was for 48 hours at 23° C. A plant pathogenic strain of Pseudomonas syringae was also tested using the same PD broth medium and with concentrations of colony forming units as given above. The organisms were obtained from the Montana State University plant pathogen culture collection administered by Dr. […] The relative activities against plant pathogenic fungi ranged from a few tenths of a microgram up to thirty micrograms. Table 2 provides the results of tests of inhibitory activity of the munumbicins against various plant-pathogenic fungi and one pathogenic bacterium. The data are reported as MIC values in micrograms/ml.

Phytophthora cinnamomi = assay: as above; type: cell-based; settings: PD broth, 48 hours at 23° C.
Method: as §1

Pseudomonas syringae = assay: as above; type: cell-based; settings: PD broth
Method: as §1

Pythium ultimum = assay: as above; type: cell-based; settings: PD broth, 48 hours at 23° C.
Method: as §1

Rhizoctonia solani = assay: as above; type: cell-based; settings: PD broth, 48 hours at 23° C.
Method: as §1

Sclerotinia sclerotiorum = assay: as above; type: cell-based; settings: PD broth, 48 hours at 23° C.
Method: as §1

[9] = test system: Enterococcus faecalis ATCC 51299 (VRE); assay: microbroth dilution MIC; type: cell-based; settings: for MIC Enterococcus faecalis ATCC 51299: resistant to vancomycin, first listing in Table 4; for MIC E. faecalis VRE 51299: third listing in Table 4
S. epidermis 12228 = assay: microbroth dilution MIC; type: cell-based, Staphylococcus epidermidis
E. faecium 49624 = assay: microbroth dilution MIC; type: cell-based, Enterococcus faecium
E. faecalis 29212 = assay: microbroth dilution MIC; type: cell-based, Enterococcus faecalis
S. aureus 29213 = assay: microbroth dilution MIC; type: cell-based, Staphylococcus aureus
[10] = test system: Listeria monocytogenes 19114; assay: microbroth dilution MIC; type: cell-based
[11] = test system: Staphylococccus simulans 11631; assay: microbroth dilution MIC; type: cell-based, Staphylococcus simulans
[12] = test system: Staphylococccus aureus 27734; assay: microbroth dilution MIC; type: cell-based, Staphylococcus aureus
[13] = test system: Streptococcus pneumoniae 49619; assay: microbroth dilution MIC; type: cell-based
[14] = test system: M. tuberculosis H37Rv (ATCC 25618) (drug sensitive); assay: IC50 in Mycobacteria 7H11 agar; type: cell-based, Mycobacterium tuberculosis; settings: 7H11 agar with 10% OADC
[15] = test system: Human Breast Cancer Epithelial BT-20; assay: CellTiter 96 Aqueous Non-Radioactive Cell Proliferation Assay; type: cell-based; settings: 96-144 hours; Table 7
[16] = test system: Human Cervical Cancer Epithelial ME180; assay: as above; type: cell-based; settings: 48 hours; Table 7
Method in brief: (§2)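 Cells rested 5 h at 37° C after seeding, then treated in triplicate with two-fold serial dilutions of compound. A-549 and ME-180 were exposed for 48 h. After 1–4 h MTS reagent at 37° C, OD490 was read and corrected by subtracting medium-only blanks.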

[17] = test system: Human Lung Cancer Epithelial A549; assay: as above; type: cell-based; settings: 48 hours; Table 7
Method in brief: as §2

[18] = test system: Human Primary Mammary Epithelial HMEC; assay: as above; type: cell-based; settings: 48 hours; Table 7
brine shrimp = brine shrimp assays; settings: preliminary assays
Aspergillus fumigatus = assay: microbroth dilution MIC
[19] = test system: Streptococcus pneumoniae 700676; assay: microbroth dilution MIC
[20] = test system: Plasmodium falciparum strain CSC-1 (Honduras); assay: antimalarial assay, 3H-phenylalanine radiobioassay in human red blood cells; settings: human red blood cells, 3H-phenylalanine; standard deviation of the mean, three experiments

Substance	diameter of the zone of inhibition, Streptococcus pneumoniae ATCC 49619 [1] [mm]	diameter of the zone of inhibition, Escherichia coli ATCC 25922 [2]	diameter of the zone of inhibition, S. maltophilia ATCC 13637 [3]	diameter of the zone of inhibition, Candida albicans ATCC 24433 [4]	diameter of the zone of inhibition, Candida albicans ATCC 90028 [5]	diameter of the zone of inhibition, Candida krusei ATCC 6258 (Candida krusei ATCC 6258)	diameter of the zone of inhibition, Candida parasdosis ATCC 90018 [6]	diameter of the zone of inhibition, Cryptococcus neoformans ATCC 32045 [7] [mm]	diameter of the zone of inhibition, Saccharomyces cerevisiae ATCC 9763 [8]	MIC Geotrichum candidum (Geotrichum candidum) [micrograms/ml]	MIC Phytophthora cinnamomi (Phytophthora cinnamomi) [micrograms/ml]	MIC Pseudomonas syringae (Pseudomonas syringae) [micrograms/ml]	MIC Pythium ultimum (Pythium ultimum) [micrograms/ml]	MIC Rhizoctonia solani (Rhizoctonia solani) [micrograms/ml]	MIC Sclerotinia sclerotiorum (Sclerotinia sclerotiorum) [micrograms/ml]	MIC Enterococcus faecalis ATCC 51299 [9] [micrograms/ml]	MIC E. faecalis VRE 51299 [9] [micrograms/ml]	MIC S. epidermis 12228 (S. epidermis 12228) [micrograms/ml]	MIC E. faecium 49624 (E. faecium 49624) [micrograms/ml]	MIC E. faecalis 29212 (E. faecalis 29212) [micrograms/ml]	other results
munumbicin B	17	R	9 mm	R	R	R	R	12	R	31.2	6.2	2.0	0.2	8.0	0.20	12.5	0.5	1	0.5	0.25	MIC E. faecalis 51299 ([9]; second listing in Table 4): 8 micrograms/ml; MIC S. aureus 29213 (S. aureus 29213): 0.5 micrograms/ml; MIC Listeria monocytogenes 19114 [10]: 4 micrograms/ml; MIC Staphylococccus simulans 11631 [11]: 1 micrograms/ml; MIC Staphylococccus aureus 27734 [12]: 0.5 micrograms/ml; MIC Streptococcus pneumoniae 49619 [13]: 0.5 micrograms/ml; IC50 M. tuberculosis H37Rv (ATCC 25618) (drug sensitive) [14]: 46 micrograms/ml; IC50 Human Breast Cancer Epithelial BT-20 [15]: 0.019 micrograms/ml; IC50 Human Cervical Cancer Epithelial ME180 [16]: 0.140 micrograms/ml; IC50 Human Lung Cancer Epithelial A549 [17]: 0.019 micrograms/ml; IC50 Human Primary Mammary Epithelial HMEC [18]: 0.011 micrograms/ml; LC50 brine shrimp (brine shrimp): 8.2 micrograms/ml; MIC Aspergillus fumigatus (Aspergillus fumigatus): 20 micrograms/ml; MIC Streptococcus pneumoniae 700676 [19]: 0.5 micrograms/ml; IC50 Plasmodium falciparum [20]: 0.13 ± 0.07 µg/mL
munumbicin C	7	R	R	R	R	8 mm	R	12	R	15.6	1.5	15.6	4.0	1.5	8.0	16	0.5	2	0.5	0.5	MIC S. aureus 29213 (S. aureus 29213): 1 micrograms/ml; MIC Listeria monocytogenes 19114 [10]: 4 micrograms/ml; MIC Staphylococccus simulans 11631 [11]: 1 micrograms/ml; MIC Staphylococccus aureus 27734 [12]: 0.5 micrograms/ml; MIC Streptococcus pneumoniae 49619 [13]: 0.125 micrograms/ml; IC50 M. tuberculosis H37Rv (ATCC 25618) (drug sensitive) [14]: >150 micrograms/ml; IC50 Human Breast Cancer Epithelial BT-20 [15]: 0.013 micrograms/ml; IC50 Human Cervical Cancer Epithelial ME180 [16]: 0.1 micrograms/ml; IC50 Human Lung Cancer Epithelial A549 [17]: 0.3 micrograms/ml; IC50 Human Primary Mammary Epithelial HMEC [18]: 0.0023 micrograms/ml; LC50 brine shrimp (brine shrimp): 2.0 micrograms/ml; MIC Aspergillus fumigatus (Aspergillus fumigatus): 20 micrograms/ml; MIC Streptococcus pneumoniae 700676 [19]: 0.125 micrograms/ml; IC50 Plasmodium falciparum [20]: 0.0065 µg/mL

Reference: patent US7259004B1, “Endophytic streptomycetes from higher plants with biological activity” (Montana State University, priority 2002, dated 2007)
